Patent publication US20130244929A1 (priority 2010, published 2013)
Like-named read-outs stand apart in the source and are kept apart here.

Assays:
[1] = target: T1, SpsB (Staphylococcus aureus, UniProt P0A070); test: Inhibition of SpsB enzyme activity (fluorescence-based assay, bacterial membrane fraction); type: biochemical
T1 construct: using a bacterial membrane fraction as a source of SpsB; from tissue
T1 sequence (P0A070 1-191): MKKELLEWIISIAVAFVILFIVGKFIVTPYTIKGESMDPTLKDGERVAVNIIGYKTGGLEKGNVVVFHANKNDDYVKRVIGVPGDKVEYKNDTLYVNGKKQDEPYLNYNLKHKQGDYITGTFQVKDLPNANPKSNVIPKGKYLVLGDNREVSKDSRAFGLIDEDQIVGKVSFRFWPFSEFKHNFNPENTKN
Protocol: Signal peptidase enzyme activity was measured in a fluorescence-based assay using a bacterial membrane fraction as a source of SpsB (See Bruton et al., 2003, Eur J Med Chem 38:351-356). The SpsB substrate is a synthetic lipopeptide, decanoyl-K(DABCYL)-TPTAKA↓ASKKD-D(EDANS)—NH2 (prepared by JPT Peptide Technologies, Berlin, Germany). Assays were performed with 20 μM peptide substrate (Km≈5 μM) and reactions were initiated with enzyme addition (final protein concentration of 0.6 mg/mL). SpsB mediated cleavage of the peptide substrate was detected as an increase in fluorescence (excitation 340 nm/emission 460 nm).

[2] = test system: MB 5393 (COL), a methicillin-resistant S. aureus strain; test: Determination of minimum and synergistic inhibitory concentration; type: cell-based; settings: for SIC: presence of imipenem (4 μg/mL); for MIC: Staphylococcus aureus
Protocol: MB 5393 (COL), a methicillin-resistant S. aureus strain, was inoculated into Trypticase Soy Broth (TSB, BBL) and grown in a humidified incubator for 18 hours with rotary shaking at 220 rpm and kept on ice until used.
A quantity of imipenem (Merck Chemical Collection) was weighed out and dissolved into sterile 10 mM MOPS buffer at pH 7. This solution was diluted to 1600 μg/mL, 200 μg/mL, and 25 μg/mL and filter-sterilized through a 0.45 μm filter. From these solutions, seven 1:2 serial dilutions were prepared using sterile 10 mM MOPS buffer at pH 7. The final concentration ranges tested were 128 to 2 μg/mL, 16 to […], and 2 to 0.03 μg/mL. The solutions were kept refrigerated until used.
Test compounds (EXAMPLES 1-67) were prepared in sterile water or DMSO at a concentration of 3.2 mg/mL. From this solution, 11 serial 1:2 dilutions were prepared using sterile water. The final concentration range tested was 64 to 0.0313 μg/mL. The solutions were kept refrigerated until used.
Two-fold serial dilutions of test compounds were tested in the presence and absence of subinhibitory concentrations of imipenem (4 μg/mL) in 96-well U bottom microliter dishes in microbiological growth media. The plates were inoculated with bacterial cells to a final concentration of ˜5×10^5 CFU/mL. Test plates were incubated stationery at 37° C. for 22-24 hours.
After 22 hours of incubation, the Minimum inhibitory concentrations (MICs) were determined, defined as the lowest concentration of antibiotic that prevented all visible growth in the absence of imipenem. Synergistic inhibitory concentrations (SICs) were determined, defined as the lowest concentration of antibiotic that prevented all visible growth in the presence of imipenen.

[3] = MRSA COL, absence of imipenem, 22 hours, read-out: MIC

Compound	IC50 [1]	SIC ([2]; MRSA COL, 22 hours)	MIC ([2]; MRSA, 22 h)	MIC [2, 3]	IC50 ([1]; 20 μM peptide substrate, read-out: SpsB IC50)
CCCCCCCCCc1ccc(-c2ccc3sc(C(=O)NCCC(=O)N[C@@H](CCCCN)C(=O)N(C)[C@@H]4C(=O)N[C@@H](C)C(=O)N[C@H](C(=O)O)Cc5ccc(O)c(c5)-c5cc4ccc5O)cc3c2)cc1 [EXAMPLE 45]	< 10 nM	G (G: SIC <0.0625)	1 to 8 µg/mL	–	–
C[C@@H]1NC(=O)[C@@H](N(C)C(=O)[C@H](CCCCN)NC(=O)CCNC(=O)c2coc(CCCCCCCCc3ccccc3)n2)c2ccc(O)c(c2)-c2cc(ccc2O)C[C@@H](C(=O)O)NC1=O [EXAMPLE 64]	10 to 50 nM	G (G: SIC <0.0625)	< 1 µg/mL	–	–
CCCCCCCCCc1ccc(-c2ncc(C(=O)NCCC(=O)N[C@@H](CCCCN(C)C)C(=O)N(C)[C@@H]3C(=O)N[C@@H](C)C(=O)N[C@H](C(=O)O)Cc4ccc(O)c(c4)-c4cc3ccc4O)cn2)cc1 [EXAMPLE 34]	< 10 nM	G (G: SIC <0.0625)	< 1 µg/mL	–	–
CCCCCCCCCCc1ccc2ccc(C(=O)NCCC(=O)N3CCC[C@H]3C(=O)N(C)[C@@H]3C(=O)N[C@@H](C)C(=O)N[C@H](C(=O)O)Cc4cccc(c4)-c4cc3ccc4OC)cc2c1 [EXAMPLE 67]	10 to 50 nM	I (I: SIC >1)	–	> 8 µg/mL	–
CCCc1ccc(-c2ccc(C(=O)NCCC(=O)N(CCCCN)CC(=O)N(C)[C@@H]3C(=O)N[C@@H](C)C(=O)N[C@H](C(=O)O)Cc4ccc(OC)c(c4)-c4cc3ccc4OC)cc2)cc1.O=C(O)C(F)(F)F [EXAMPLE 11, 4-[{2-[[(7S,10S,13S)-13-carboxy-3,18-dimethoxy-10-methyl-8,11-dioxo-9,12-diazatricyclo[13.3.1.1^2,6]icosa-1(19),2(20),3,5,15,17-hexaen-7-yl](methyl)amino]-2-oxoethyl}(3-{[(4′-propylbiphenyl-4-yl)carbonyl]amino}propanoyl)amino]butan-1-aminium trifluoroacetate]	–	H (H: SIC 0.062-1)	–	> 8 µg/mL	10 to 50 nM
C[C@@H]1NC(=O)[C@@H](N(C)C(=O)[C@H](CCCCN)NC(=O)CCNC(=O)c2ccc(-c3ccc(C(C)(C)C)cc3)cc2)c2ccc(O)c(c2)-c2cc(ccc2O)C[C@@H](C(=O)O)NC1=O [EXAMPLE 42]	< 10 nM	H (H: SIC 0.062-1)	< 1 µg/mL	–	–
CCCc1ccc(-c2ccc(C(=O)NCCC(=O)NC(CCCCN)C(=O)N(C)[C@@H]3C(=O)N[C@@H](C)C(=O)N[C@H](C(=O)O)Cc4ccc(OC)c(c4)-c4cc3ccc4OC)cc2)cc1.O=C(O)C(F)(F)F (stereo partly drawn) [EXAMPLE 1, 6-[[(7S,10S,13S)-13-carboxy-3,18-dimethoxy-10-methyl-8,11-dioxo-9,12-diazatricyclo[13.3.1.1^2,6]icosa-1(19),2(20),3,5,15,17-hexaen-7-yl](methyl)amino]-6-oxo-5-[(3-{[(4′-propylbiphenyl-4-yl)carbonyl]amino}propanoyl)amino]hexan-1-aminium trifluoroacetate]	10 to 50 nM	H (H: SIC 0.062-1)	–	1 to 8 µg/mL	–
CCCCCCCCCc1ccc(-c2cnc(C(=O)NCCC(=O)N[C@@H](CCCCN)C(=O)N(C)[C@@H]3C(=O)N[C@@H](C)C(=O)N[C@H](C(=O)O)Cc4ccc(O)c(c4)-c4cc3ccc4O)nc2)cc1 [EXAMPLE 63]	10 to 50 nM	G (G: SIC <0.0625)	< 1 µg/mL	–	–
CCCCCCCCCCc1ccc2cc(C(=O)NCCC(=O)N[C@@H](CCCCNC(C)=O)C(=O)N(C)[C@@H]3C(=O)N[C@@H](C)C(=O)N[C@H](C(=O)O)Cc4ccc(O)c(c4)-c4cc3ccc4O)ccc2c1 [EXAMPLE 33]	< 10 nM	G (G: SIC <0.0625)	–	> 8 µg/mL	–
CCCCCCCCCc1ccc(-c2nc(C(=O)NCCC(=O)N[C@@H](CCCCN)C(=O)N(C)[C@@H]3C(=O)N[C@@H](C)C(=O)N[C@H](C(=O)O)Cc4ccc(O)c(c4)-c4cc3ccc4O)cs2)cc1 [EXAMPLE 41]	< 10 nM	G (G: SIC <0.0625)	< 1 µg/mL	–	–
C[C@@H]1NC(=O)[C@@H](N(C)C(=O)[C@H](CCCCN)NC(=O)CCNC(=O)c2ccc(-c3ccc(C4CCCCC4)cc3)cc2)c2ccc(O)c(c2)-c2cc(ccc2O)C[C@@H](C(=O)O)NC1=O [EXAMPLE 49]	< 10 nM	G (G: SIC <0.0625)	< 1 µg/mL	–	–
CC(c1ccc(-c2ccc(C(=O)NCCC(=O)N[C@@H](CCCCN)C(=O)N(C)[C@@H]3C(=O)N[C@@H](C)C(=O)N[C@H](C(=O)O)Cc4ccc(O)c(c4)-c4cc3ccc4O)cc2)cc1)C12CC3CC(CC(C3)C1)C2 (stereo partly drawn) [EXAMPLE 22]	< 10 nM	G (G: SIC <0.0625)	< 1 µg/mL	–	–
CCCCCCCc1ccc2cc(C(=O)NCCC(=O)N[C@@H](CCCCN)C(=O)N(C)[C@@H]3C(=O)N[C@@H](C)C(=O)N[C@H](C(=O)O)Cc4ccc(O)c(c4)-c4cc3ccc4O)cnc2c1 [EXAMPLE 61]	10 to 50 nM	H (H: SIC 0.062-1)	< 1 µg/mL	–	–
CC(C)CCCCCCc1ccc(-c2ccc(C(=O)NCCC(=O)N[C@@H](CCCCN)C(=O)N(C)[C@@H]3C(=O)N[C@@H](C)C(=O)N[C@H](C(=O)O)Cc4ccc(O)c(c4)-c4cc3ccc4O)cc2)cc1 [EXAMPLE 37]	< 10 nM	G (G: SIC <0.0625)	< 1 µg/mL	–	–
C[C@@H]1NC(=O)[C@@H](N(C)C(=O)[C@@H]2CCCN2C(=O)CCNC(=O)c2ccc(CCCCCCCCc3ccccc3)cc2)c2ccc(O)c(c2)-c2cc(ccc2O)C[C@@H](C(=O)O)NC1=O [EXAMPLE 59]	< 10 nM	H (H: SIC 0.062-1)	1 to 8 µg/mL	–	–
CCCCCCCCCCc1ccc2nc(C(=O)NCCC(=O)N[C@@H](CCCCN)C(=O)N(C)[C@@H]3C(=O)N[C@@H](C)C(=O)N[C@H](C(=O)O)Cc4ccc(O)c(c4)-c4cc3ccc4O)ccc2c1 [EXAMPLE 62]	10 to 50 nM	G (G: SIC <0.0625)	–	< 1 µg/mL	–
CCCCCCCCCCc1ccc2cc(C(=O)NCCC(=O)N[C@@H](CCCC(=O)O)C(=O)N(C)[C@@H]3C(=O)N[C@@H](C)C(=O)N[C@H](C(=O)O)Cc4ccc(O)c(c4)-c4cc3ccc4O)ccc2c1 [EXAMPLE 60]	10 to 50 nM	G (G: SIC <0.0625)	–	1 to 8 µg/mL	–
C[C@@H]1NC(=O)[C@@H](N(C)C(=O)[C@H](CCCCN)NC(=O)CCNC(=O)c2ccc(-c3ccc(CC4CCCCC4)cc3)cc2)c2ccc(O)c(c2)-c2cc(ccc2O)C[C@@H](C(=O)O)NC1=O [EXAMPLE 27]	< 10 nM	G (G: SIC <0.0625)	< 1 µg/mL	–	–
CCCCCc1ccc(-c2ccc(C(=O)NCCC(=O)N[C@@H](CCCCN)C(=O)N(C)[C@@H]3C(=O)N[C@@H](C)C(=O)N[C@H](C(=O)O)Cc4ccc(O)c(c4)-c4cc3ccc4O)cc2)cc1 [EXAMPLE 35]	< 10 nM	G (G: SIC <0.0625)	< 1 µg/mL	–	–
CC(C)CCCC(C)CCc1ccc(-c2ccc(C(=O)NCCC(=O)N[C@@H](CCCCN)C(=O)N(C)[C@@H]3C(=O)N[C@@H](C)C(=O)N[C@H](C(=O)O)Cc4ccc(O)c(c4)-c4cc3ccc4O)cc2)cc1 (stereo partly drawn) [EXAMPLE 25]	< 10 nM	G (G: SIC <0.0625)	< 1 µg/mL	–	–
CCCc1ccc(-c2ccc(C(=O)NCCC(=O)N[C@@H](CCCN)C(=O)N(C)[C@@H]3C(=O)N[C@@H](C)C(=O)N[C@H](C(=O)O)Cc4ccc(O)c(c4)-c4cc3ccc4O)cc2)cc1 [EXAMPLE 55]	< 10 nM	H (H: SIC 0.062-1)	< 1 µg/mL	–	–
